From paper PMC3005002 (Glia, 2011)

Target: T1, NCC69 (HA:NCC69) (Drosophila melanogaster, UniProt Q9VTW8)
T1 sequence (Q9VTW8 1-1171): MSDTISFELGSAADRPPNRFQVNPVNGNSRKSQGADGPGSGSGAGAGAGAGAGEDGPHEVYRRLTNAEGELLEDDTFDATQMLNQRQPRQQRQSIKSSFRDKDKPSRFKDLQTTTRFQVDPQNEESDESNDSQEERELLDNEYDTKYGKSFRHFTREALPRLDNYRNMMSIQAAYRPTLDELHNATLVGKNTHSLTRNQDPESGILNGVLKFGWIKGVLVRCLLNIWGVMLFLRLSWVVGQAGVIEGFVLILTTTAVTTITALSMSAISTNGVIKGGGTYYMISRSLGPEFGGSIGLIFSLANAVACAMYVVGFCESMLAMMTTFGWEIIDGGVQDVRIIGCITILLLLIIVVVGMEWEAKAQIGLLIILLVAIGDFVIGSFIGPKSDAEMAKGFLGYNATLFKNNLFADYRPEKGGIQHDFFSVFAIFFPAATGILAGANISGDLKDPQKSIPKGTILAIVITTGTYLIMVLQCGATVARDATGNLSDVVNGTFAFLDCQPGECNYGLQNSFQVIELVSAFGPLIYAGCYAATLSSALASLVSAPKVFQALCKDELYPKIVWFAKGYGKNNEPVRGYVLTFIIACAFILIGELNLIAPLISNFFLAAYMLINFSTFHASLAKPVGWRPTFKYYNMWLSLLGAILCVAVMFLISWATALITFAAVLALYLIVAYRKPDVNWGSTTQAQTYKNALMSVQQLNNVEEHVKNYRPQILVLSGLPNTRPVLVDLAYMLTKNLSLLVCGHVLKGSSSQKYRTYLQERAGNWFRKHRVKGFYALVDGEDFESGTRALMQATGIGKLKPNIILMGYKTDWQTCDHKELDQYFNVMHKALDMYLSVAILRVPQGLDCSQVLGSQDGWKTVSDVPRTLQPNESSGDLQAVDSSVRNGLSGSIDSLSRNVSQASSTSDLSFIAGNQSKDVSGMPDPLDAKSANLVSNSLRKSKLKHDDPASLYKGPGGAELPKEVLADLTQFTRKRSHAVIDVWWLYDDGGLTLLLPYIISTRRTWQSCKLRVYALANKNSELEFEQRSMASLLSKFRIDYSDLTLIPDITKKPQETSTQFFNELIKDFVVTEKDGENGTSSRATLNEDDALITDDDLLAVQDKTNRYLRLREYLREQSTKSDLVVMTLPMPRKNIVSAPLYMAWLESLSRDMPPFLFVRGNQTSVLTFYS
Test: […] influx inhibition in stably transfected SL2 cells
Type: cell-based

Ki: 49 nM
Structure (SMILES): CCCCNc1cc(C(=O)O)cc(S(N)(=O)=O)c1Oc1ccccc1 [bumetanide]
